Values quoted from earlier work in patent US10251409B2, “Mixtures of matter” (SYMRISE AG, priority 2013, dated 2019).

Settings: compared with sugar

Q: With `C=C1C[C@@]23CC[C@H]4[C@@](C)(CCC[C@@]4(C)C(=O)O[C@@H]4O[C@H](CO)[C@@H](O)[C@H](O)[C@H]4O)[C@@H]2CC[C@]1(O[C@@H]1O[C@H](CO)[C@@H](O)[C@H](O[C@@H]2O[C@H](CO)[C@@H](O)[C@H](O)[C@H]2O)[C@H]1O[C@@H]1O[C@H](CO)[C@@H](O)[C@H](O)[C@H]1O)C3` [rebaudioside A] as the compound, how does the “Sweetening power relative to sugar” value read?
A: up to 450 times
